Laboratory results as given in patent US9062018B2, “Crytalline form of 13-[(N-tert-butoxycarbonyl)-2′-O-hexanoyl-3-phenylisoserinyl]-10-deacetylbaccatin III” (Indena S.p.A, priority 2010, dated 2015).

Legend:
[1] = ICH stability studies (chemical stability of the solid form); format: physicochemical; conditions: mainly an impurity stemming from oxidation of the 10-position of the baccatin core
Source text: Thus it is desirable to find a crystalline form of compound (1) which is chemically and thermodynamically stable. A method for preparing such solid form of compound (1) continually and constantly is also a prerequisite for the development of a robust manufacturing process.

[2] = Stability data at 25±2° C. and 60±5% relative humidity of amorphous and Form A of compound (1); format: physicochemical; conditions: for HPLC assay (%) of compound (1) with reference to the anhydrous and solvent free basis / IR identification / Potential impurity-HPLC (area %): 10-dehydro compound (1): 25±2° C.; for HPLC assay (%) of compound (1) with reference to the anhydrous and solvent free basis / IR identification / Potential impurity-HPLC (area %): 10-dehydro compound (1) / Specific optical rotation (°) (c = 1 ethanol, at 20° C.): 60±5% relative humidity; for Specific optical rotation (°) (c = 1 ethanol, at 20° C.): storage 25±2° C.
Procedure: Stability data at 25±2° C. and 60±5% relative humidity of amorphous and Form A of compound (1). The packaging was the same for both solid forms (Amber glass vial+polyethylene bag+vacuum sealed PET/Aluminum/PE multilayer bag).

[3] = T = 0, against the reference FTIR figure of the form
[4] = T = 0, amber glass vial + polyethylene bag + vacuum sealed PET/Aluminum/PE multilayer bag

Row | Compound | Chemical stability during ICH stability studies [1] | HPLC assay (%) of compound (1) with reference to the anhydrous and solvent free basis ([2]; 3 months) [%] | IR identification ([2]; 3 months) | Potential impurity-HPLC (area %): 10-dehydro compound (1) ([2]; 3 months) [% area %] | Specific optical rotation (°) (c = 1 ethanol, at 20° C.) ([2]; 3 months) | HPLC assay (%) of compound (1) with reference to the anhydrous and solvent free basis ([2]; 6 months) [%] | IR identification ([2]; 6 months) | Potential impurity-HPLC (area %): 10-dehydro compound (1) ([2]; 6 months) [% area %] | Specific optical rotation (°) (c = 1 ethanol, at 20° C.) ([2]; 6 months) | Potential impurity-HPLC (area %): 10-dehydro compound (1) ([2]; T = 0) [% area %] | IR identification [2, 3] | HPLC assay (%) of compound (1) with reference to the anhydrous and solvent free basis [2, 4] [%] | Specific optical rotation (°) (c = 1 ethanol, at 20° C.) ([2]; T = 0) | Oxidation of the 10-position of the baccatin core ([2]; solid form on storage)
1 | CCCCCC(=O)OC(C(=O)OC1CC2(O)C(OC(=O)c3ccccc3)C3C4(OC(C)=O)COC4CC(O)C3(C)C(=O)C(O)C(=C1C)C2(C)C)C(NC(=O)OC(C)(C)C)c1ccccc1 (centres unmarked) [Amourphous Form of compound (1), 13-[(N-tert-butoxycarbonyl)-2′-O-hexanoyl-3-phenylisoserinyl]-10-deacetylbaccatin III] | problems of chemical stability | 99.0 | Complies | 0.36 | −46.3 | 98.9 | Complie | 0.53 | −46.0 | 0.29 | Complies with | 99.7 | −46.0 | –
2 | CCCCCC(=O)OC(C(=O)OC1CC2(O)C(OC(=O)c3ccccc3)C3C4(OC(C)=O)COC4CC(O)C3(C)C(=O)C(O)C(=C1C)C2(C)C)C(NC(=O)OC(C)(C)C)c1ccccc1 (centres unmarked) [Form A of compound (1), 13-[(N-tert-butoxycarbonyl)-2′-O-hexanoyl-3-phenylisoserinyl]-10-deacetylbaccatin III] | – | 99.0 | Complies | 0.29 | −46.3 | 99.1 | Complies | 0.29 | −46.3 | 0.29 | Complies with | 99.0 | −46.2 | prevented
